Assay results taken from patent US12077503B2, “Substituted cyclic amides and their use as herbicides” (FMC CORPORATION, priority 2015, dated 2024).

Experiments:
Assay type in all cases: in vivo
Kochia (Kochia scoparia) [1] = assay: Test A preemergence; details: Bassia scoparia, pre-emergence, 240 h; for pest or weed control at 500 g/ha: 500 g ai/ha, preemergence, 0 to 100 scale where 0 is no effect and 100 is complete control, read-out: Kochia plant response rating; for pest or weed control at 125 g/ha: Preemergence, 125 g ai/ha, 0 to 100 scale (0 no effect, 100 complete control), read-out: Plant response rating, Kochia
Procedure, shortened: (§1)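 Preemergence soil spray on seeded pots or post-emergence spray on 1–2 leaf plants, in loam–sand blend. Greenhouse ~10 d. Visual rating 0–100 against untreated plants.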

[2] = system: barnyardgrass (Echinochloa crus-galli); assay: Test A preemergence; details: Echinochloa crus-galli, pre-emergence, 240 h; for pest or weed control at 500 g/ha: 500 g ai/ha, preemergence, 0 to 100 scale where 0 is no effect and 100 is complete control, read-out: Barnyardgrass plant response rating; for pest or weed control at 125 g/ha: Preemergence, 125 g ai/ha, 0 to 100 scale (0 no effect, 100 complete control), read-out: Plant response rating, Barnyardgrass
Procedure, shortened: as §1

[3] = system: giant foxtail (Setaria faberii); assay: Test A preemergence; details: Setaria faberi, pre-emergence, 240 h; for pest or weed control at 500 g/ha: 500 g ai/ha, preemergence, 0 to 100 scale where 0 is no effect and 100 is complete control, read-out: Foxtail, Giant plant response rating; for pest or weed control at 125 g/ha: Preemergence, 125 g ai/ha, 0 to 100 scale (0 no effect, 100 complete control), read-out: Plant response rating, Foxtail, Giant
Procedure, shortened: as §1

[4] = system: ragweed (common ragweed, Ambrosia elatior); assay: Test A preemergence; details: Ambrosia artemisiifolia, pre-emergence, 240 h; for pest or weed control at 500 g/ha: 500 g ai/ha, preemergence, 0 to 100 scale where 0 is no effect and 100 is complete control, read-out: Ragweed plant response rating; for pest or weed control at 125 g/ha: Preemergence, 125 g ai/ha, 0 to 100 scale (0 no effect, 100 complete control), read-out: Plant response rating, Ragweed
Procedure, shortened: as §1

[5] = system: ryegrass, Italian (Italian ryegrass, Lolium multiflorum); assay: Test A preemergence; details: Lolium multiflorum, pre-emergence, 240 h, Preemergence, 125 g ai/ha; 0 to 100 scale (0 no effect, 100 complete control); read-out: Plant response rating, Ryegrass, Italian
Procedure, shortened: as §1

[6] = system: Galium (catchweed bedstraw, Galium aparine); assay: Test A postemergence; details: Galium, post-emergence, 240 h, Postemergence; for pest or weed control at 125 g/ha: 125 g ai/ha, visual rating about 10 d after treatment, read-out: Galium plant response rating (0 to 100 scale); for pest or weed control at 500 g/ha: 500 g ai/ha, visual injury, 0 to 100 scale (0 no effect, 100 complete control), approx. 10 d, read-out: Plant response rating, Galium
Procedure, shortened: as §1

Kochia (Kochia scoparia) [7] = assay: Test A postemergence; details: Bassia scoparia, post-emergence, 240 h, Postemergence; for pest or weed control at 125 g/ha: 125 g ai/ha, visual rating about 10 d after treatment, read-out: Kochia plant response rating (0 to 100 scale); for pest or weed control at 500 g/ha: 500 g ai/ha, visual injury, 0 to 100 scale (0 no effect, 100 complete control), approx. 10 d, read-out: Plant response rating, Kochia
Procedure, shortened: as §1

[8] = system: barnyardgrass (Echinochloa crus-galli); assay: Test A postemergence; details: Echinochloa crus-galli, post-emergence, 240 h, Postemergence; for pest or weed control at 125 g/ha: 125 g ai/ha, visual rating about 10 d after treatment, read-out: Barnyardgrass plant response rating (0 to 100 scale, 0 no effect, 100 complete control); for pest or weed control at 500 g/ha: 500 g ai/ha, visual injury, 0 to 100 scale (0 no effect, 100 complete control), approx. 10 d, read-out: Plant response rating, Barnyardgrass
Procedure, shortened: as §1

[9] = system: blackgrass (Alopecurus myosuroides); assay: Test A postemergence; details: Alopecurus myosuroides, post-emergence, 240 h, Postemergence; for pest or weed control at 125 g/ha: 125 g ai/ha, visual rating about 10 d after treatment, read-out: Blackgrass plant response rating (0 to 100 scale); for pest or weed control at 500 g/ha: 500 g ai/ha, visual injury, 0 to 100 scale (0 no effect, 100 complete control), approx. 10 d, read-out: Plant response rating, Blackgrass
Procedure, shortened: as §1

corn (Zea mays) = assay: Test A postemergence; details: Zea mays, post-emergence, 240 h, Postemergence; for plant injury at 125 g/ha: 125 g ai/ha, visual rating about 10 d after treatment, read-out: Corn plant response rating (0 to 100 scale); for Corn plant response rating (crop injury, 0 = no effect, 100 = complete kill) at 500 g/ha: 500 g ai/ha, visual injury, 0 to 100 scale (0 no effect, 100 complete control), approx. 10 d
Procedure, shortened: as §1

[10] = system: giant foxtail (Setaria faberii); assay: Test A postemergence; details: Setaria faberi, post-emergence, 240 h, Postemergence; for pest or weed control at 125 g/ha: 125 g ai/ha, visual rating about 10 d after treatment, read-out: Foxtail, Giant plant response rating (0 to 100 scale); for pest or weed control at 500 g/ha: 500 g ai/ha, visual injury, 0 to 100 scale (0 no effect, 100 complete control), approx. 10 d, read-out: Plant response rating, Foxtail, Giant
Procedure, shortened: as §1

[11] = system: pigweed (Amaranthus retroflexus); assay: Test A postemergence; details: Amaranthus retroflexus, post-emergence, 240 h, Postemergence; for pest or weed control at 125 g/ha: 125 g ai/ha, visual rating about 10 d after treatment, read-out: Pigweed plant response rating (0 to 100 scale); for pest or weed control at 500 g/ha: 500 g ai/ha, visual injury, 0 to 100 scale (0 no effect, 100 complete control), approx. 10 d, read-out: Plant response rating, Pigweed
Procedure, shortened: as §1

[12] = system: ragweed (common ragweed, Ambrosia elatior); assay: Test A postemergence; details: Ambrosia artemisiifolia, post-emergence, 240 h, Postemergence; for pest or weed control at 125 g/ha: 125 g ai/ha, visual rating about 10 d after treatment, read-out: Ragweed plant response rating (0 to 100 scale); for pest or weed control at 500 g/ha: 500 g ai/ha, visual injury, 0 to 100 scale (0 no effect, 100 complete control), approx. 10 d, read-out: Plant response rating, Ragweed
Procedure, shortened: as §1

[13] = system: ryegrass, Italian (Italian ryegrass, Lolium multiflorum); assay: Test A postemergence; details: Lolium multiflorum, post-emergence, 240 h, Postemergence; for pest or weed control at 125 g/ha: 125 g ai/ha, visual rating about 10 d after treatment, read-out: Ryegrass, Italian plant response rating (0 to 100 scale); for pest or weed control at 500 g/ha: 500 g ai/ha, visual injury, 0 to 100 scale (0 no effect, 100 complete control), approx. 10 d, read-out: Plant response rating, Ryegrass, Italian
Procedure, shortened: as §1

[14] = system: wheat (Triticum aestivum); assay: Test A postemergence; details: Triticum aestivum, post-emergence, 240 h, Postemergence; for plant injury at 125 g/ha: 125 g ai/ha, visual rating about 10 d after treatment, read-out: Wheat plant response rating (0 to 100 scale); for plant injury at 500 g/ha: 500 g ai/ha, visual injury, 0 to 100 scale (0 no effect, 100 complete control), approx. 10 d, read-out: Plant response rating, Wheat
Procedure, shortened: as §1

SMILES | pest or weed control at 500 g/ha (Kochia (Kochia scoparia) [1]) [%] | pest or weed control at 125 g/ha (Kochia (Kochia scoparia) [1]) [%] | pest or weed control at 500 g/ha [2] [%] | pest or weed control at 125 g/ha [2] [%] | pest or weed control at 500 g/ha [3] [%] | pest or weed control at 125 g/ha [3] [%] | pest or weed control at 500 g/ha [4] [%] | pest or weed control at 125 g/ha [4] [%] | pest or weed control at 125 g/ha [5] [%] | pest or weed control at 125 g/ha [6] [%] | pest or weed control at 500 g/ha [6] [%] | pest or weed control at 125 g/ha (Kochia (Kochia scoparia) [7]) [%] | pest or weed control at 500 g/ha (Kochia (Kochia scoparia) [7]) [%] | pest or weed control at 125 g/ha [8] [%] | pest or weed control at 500 g/ha [8] [%] | pest or weed control at 125 g/ha [9] [%] | pest or weed control at 500 g/ha [9] [%] | plant injury at 125 g/ha (corn (Zea mays)) [%] | Corn plant response rating (crop injury, 0 = no effect, 100 = complete kill) at 500 g/ha (corn (Zea mays)) [%] | pest or weed control at 125 g/ha [10] [%] | also measured
CN1C[C@H](c2cccc(C(C)(F)F)c2)[C@@H](C(=O)Nc2ccccc2S(C)(=O)=O)C1=O [Compound 1318] | 80 | 70 | 90 | 90 | 90 | 90 | 90 | 0 | 40 | 60 | 60 | 0 | 40 | 80 | 90 | 70 | 70 | 60 | 80 | 90 | pest or weed control at 500 g/ha [10]: 90%; pest or weed control at 125 g/ha [11]: 30%; pest or weed control at 500 g/ha [11]: 40%; pest or weed control at 125 g/ha [12]: 10%; pest or weed control at 500 g/ha [12]: 60%; pest or weed control at 125 g/ha [13]: 20%; pest or weed control at 500 g/ha [13]: 40%; plant injury at 125 g/ha [14]: 50%; plant injury at 500 g/ha [14]: 80%
CS(=O)(=O)c1ccccc1NC(=O)[C@H]1C(=O)NC[C@@H]1c1ccc2c(c1)CCO2 [Compound 1320] | 60 | 0 | 60 | 0 | 80 | 0 | 0 | 0 | 0 | 30 | 40 | 0 | 0 | 0 | 50 | 0 | 0 | 0 | 0 | 0 | pest or weed control at 500 g/ha [10]: 20%; pest or weed control at 125 g/ha [11]: 0%; pest or weed control at 500 g/ha [11]: 0%; pest or weed control at 125 g/ha [12]: 0%; pest or weed control at 500 g/ha [12]: 0%; pest or weed control at 125 g/ha [13]: 0%; pest or weed control at 500 g/ha [13]: 0%; plant injury at 125 g/ha [14]: 0%; plant injury at 500 g/ha [14]: 0%
